Test system: PMN-Elastase
Assay: PMN-Elastase inhibition assay with chromogenic substrate
Format: biochemical, human
Details: substrate methoxysuccinyl-Ala-Ala-Pro-Val-p-nitroanilide, 405 nm absorption, semiquantitative
Protocol: PMN-Elastase was isolated and purified from human neutrophile as depicted in Recent Advances In Connective Tissue Research, 1986, Bukhauser Verlag, Basel, Boston, Stuttgart, C. Arsenis, E. S.-M. A. Thomar, and K. E. Kuettner, pages 63-68, incorporated herein by reference. It has essentially no cathepsin-G activity. The enzyme was tested against its natural substrates, such as type IV collagen, insoluble amorphous elastin, and against the specific synthetic substrate Methoxysuccinyl-L-Alanyl-L-Alanyl-L-Prolyl-L-Valyl-p-nitro-anilide, from which a DMSO stock solution was made. See The Journal of Bioloqical Chemistry, Vol. 254, pp. 4027-4032, 1979, K. Nakajima, J. C. Powers, B. M. Ashe, and M. Zimmerman, incorporated herein by reference. Aliquots were diluted with assay buffer for each measurement.
30 microliters (2.5-15 micrograms protein/ml) of PMN-Elastase was poured into a 96 well-plate, and 70 microliters of sample were added and incubated for 30 minutes at 30° C. After addition of 100 microliters substrate solution (methoxy-succinyl-L-Alanyl-L-Alanyl-L-Prolyl-L-Valyl-p-nitroanilide) in DMSO, dilution to 3 mM was effected with a buffer solution of 20 mM Tris and 500 mM NaCl at pH 7.3 (final DMSO concentration 10%). […] By varying the enzyme quantities, semiquantitative relationships were obtained.

## serum albumin: 68 KD blood contaminant in the high molecular weight fraction of the cartilage extract
  PMN-Elastase inhibitory activity: inhibit the PMN-Elastase to a certain extent
